Measurements taken from PubChem BioAssay AID463229 (Broad Institute, 2010).
Where “and” joins values, the source holds several entries; their conditions need not be identical. Equal values may be shown once.

System: INS-1E rat beta cells, no cytokines, CellTiter-Glo ATP, 48 h
Experiment: ATP level change in INS-1E without cytokines, dose response, counter-screen for beta-cell apoptosis protection project, INS-1E rat cells, ATP luminescence, cherry pick (AID 463229)

How did the AC50 turn out when `COc1ccc(O)c(/C=N/Nc2nc(Nc3ccccc3)nc(-n3nc(C)cc3C)n2)c1` was run?
The AC50 was 11.3 µM.

With `CC(=O)c1ccc(NC(=S)NC(C)c2ccc(Cl)cc2Cl)cc1` (configuration not stated) as the compound, how does the AC50 read?
The AC50 was 21.1 µM.

With `C=C1C(O)[C@@H]2O[C@]3(CC[C@H](/C=C/C(C)[C@@H]4CC(C)=CC5(O[C@H](C[C@@](C)(O)CO)CCC5O)O4)O3)CC[C@H]2O[C@@H]1C(O)CC(C)[C@H]1OC2(CCCCO2)CCC1C` (some centres not stated) as the compound, how does the AC50 read?
Its AC50 is 10.7 µM.

Which AC50 does the source give for `COc1ccc(/C=C2\CN(Cc3ccccc3)C/C(=C\c3ccc(OC)c(O)c3)C2=O)cc1O` here?
The AC50 was 4.75 µM.

How did the AC50 turn out when `C/C(=N\NC(=O)c1ccc(F)cc1)c1ccccn1` was run?
Its AC50 is 2.35 µM.

With `COC(=O)[C@@H](Cc1ccccc1)N(Cc1ccccc1)S(=O)(=O)N(Cc1ccccc1)[C@H](Cc1ccccc1)C(=O)OC` as the compound, how does the AC50 read?
The AC50 was 4.27 µM.

With `O=[N+]([O-])c1cnc(Sc2ccncn2)s1` as the compound, how does the AC50 read?
The AC50 was 5.75 µM.

With `c1ccc2c(CN3CCCCCC3)c[nH]c2c1` as the compound, how does the AC50 read?
The AC50 was 3.61 µM.

With `O=C(N/N=C/c1cccnc1)c1ccc(NC(=O)C(c2ccccc2)c2ccccc2)cc1` as the compound, how does the AC50 read?
Its AC50 is 0.848 µM.

How did the AC50 turn out when `CCC(CO)[n+]1c(C)cc(/C=C2\Sc3ccccc3N2Cc2ccccc2)cc1C` (configuration not stated) was run?
The AC50 was 0.765 µM.

For `Cc1cc(C)cc(OCC(O)CN2CCC(CN3C(=O)c4cccc5cccc(c45)C3=O)CC2)c1` (configuration not stated), which AC50 is on record?
The AC50 was 7.97 µM.

Which AC50 does the source give for `O=C(OCn1ncc(Br)c(Br)c1=O)c1ccccc1Cl` here?
The AC50 was 4.55 µM.

Which AC50 does the source give for `CCOC(=O)C1CCN(C(=O)c2c(C)oc3c2C(=O)c2ccccc2C3=O)CC1` here?
The AC50 was 17.4 µM.

With `Oc1ccc(Br)cc1/C=N/Nc1ccccn1` as the compound, how does the AC50 read?
Its AC50 is 4.28 µM.

`c1ccc2c(CNC3CCCCC3)c[nH]c2c1` was tested. Which AC50 did it give?
Its AC50 is 6.79 µM.

How did the AC50 turn out when `CCN(c1ccccc1)S(=O)(=O)c1ccc(NC(=O)c2nc(S(C)(=O)=O)ncc2Cl)cc1` was run?
Its AC50 is 8.95 µM.

`Cc1ccc(C(=O)Nc2nc(-c3ccccn3)cs2)s1` was tested. Which AC50 did it give?
Its AC50 is 6.66 µM.

`CCOC(=O)C(C(C)=O)c1c(Br)c(O)c(O)c2c(C(=O)c3ccc(C)cc3)coc12` (configuration not stated) was tested. Which AC50 did it give?
The AC50 was 2.9 µM.

For `N#CC(C#N)=C(Nc1ccc(F)cc1)SCc1cccc(F)c1`, which AC50 is on record?
Its AC50 is 5.08 µM.

For `Clc1cccc(N=C2NN=C(c3ccc4c(c3)OCCO4)CS2)c1`, which AC50 is on record?
The AC50 was 1.76 µM.

With `CC(CCCC(C)(C)O)NC(=O)c1cc(COc2ccc3ncccc3c2)on1` (configuration not stated) as the compound, how does the AC50 read?
The AC50 was 8.48 µM.

Which AC50 does the source give for `Cc1cc(C)c2sc(NNC(=O)c3ccc(S(=O)(=O)N4CCc5ccccc5C4)cc3)nc2c1` here?
The AC50 was 3.38 µM.

How did the AC50 turn out when `O=C(COc1ccc(Cl)cc1)Nc1ccc(C(=O)NCc2cccnc2)cc1` was run?
Its AC50 is 0.236 µM.

Which AC50 does the source give for `Cc1[nH]c2c(ccc3ccccc32)c1C1C(CCN)C1(C)C` (configuration not stated) here?
Its AC50 is 14.6 µM.

`CC(=O)c1cn(CCOc2cc(C)ccc2C)c2ccccc12` was tested. Which AC50 did it give?
The AC50 was 4.67 µM.

With `O=C(OCn1ncc(Cl)c(Cl)c1=O)c1ccc(F)cc1` as the compound, how does the AC50 read?
The AC50 was 7.02 µM.

Which AC50 does the source give for `O=C(C1=C[C@@H](c2ccc(C(F)(F)F)cc2)C[C@@H](OCCCCO)O1)N1CCN(Cc2ccccc2)CC1` here?
Its AC50 is 12.6 µM.

With `COc1ccc([N+](=O)[O-])c(S(=O)(=O)c2ccccc2)n1` as the compound, how does the AC50 read?
Its AC50 is 7.36 µM.

For `O=C(NCCCn1ccnc1)c1ccc(N2CCCCCC2)c([N+](=O)[O-])c1`, which AC50 is on record?
The AC50 was 8.09 µM.

Which AC50 does the source give for `Cc1ccc(-c2[nH]ncc2/C=N/n2c(COc3ccccc3C)nc3ccccc3c2=O)cc1` here?
The AC50 was 8.38 µM.

With `COc1ccc(OC)c(NC(=O)c2nc(S(=O)(=O)Cc3ccccc3)ncc2Cl)c1` as the compound, how does the AC50 read?
Its AC50 is 7.87 µM.

For `Cc1cc(/C=C2/SC(=S)N(c3ccc([N+](=O)[O-])cc3)C2=O)c(C)n1-c1cccnc1`, which AC50 is on record?
The AC50 was 0.912 µM.

With `Cc1cc(-c2ccccc2)cc(C)[n+]1Cc1ccccc1` as the compound, how does the AC50 read?
The AC50 was 0.667 µM.

Which AC50 does the source give for `CCn1nc(C)c(CNC(=O)c2ccc(OC3CCN(Cc4ccccn4)CC3)cc2)c1C` here?
Its AC50 is 6.9 µM.

Which AC50 does the source give for `O=S(=O)(c1ccc(F)c(F)c1F)N1CCN(c2ncnc3sccc23)CC1` here?
Its AC50 is 7.17 µM.

How did the AC50 turn out when `COc1cccc(C(=O)N/N=C(/c2ccccc2)c2ccccn2)c1` was run?
Its AC50 is 3.73 µM.

`CCOc1ccc(-n2c(-c3ccccc3)c[n+]3c2CCCCC3)cc1` was tested. Which AC50 did it give?
Its AC50 is 0.85 µM.

Which AC50 does the source give for `COc1ccc(-c2cc(-c3nc4ccccn4c3NCc3ccccc3)ccc2OC)cc1` here?
Its AC50 is 0.992 µM.

For `COc1cccc(/C=N/NC(=O)c2ccc(-c3ccccc3)cc2)c1O`, which AC50 is on record?
The AC50 was 13.1 µM.

`O=C(NCc1ccccc1)C1=C[C@H](c2csc3ccccc23)C[C@H](OCCCCO)O1` was tested. Which AC50 did it give?
Its AC50 is 6.75 µM.

For `COc1ccc(/C=N/Nc2cc(C)nc3ccc(OC)cc23)c(OC)c1`, which AC50 is on record?
The AC50 was 13.5 µM.

`O=C(Nc1nc2ccc(F)cc2s1)C1CCN(S(=O)(=O)c2cc([N+](=O)[O-])ccc2Cl)CC1` was tested. Which AC50 did it give?
The AC50 was 7.01 µM.

`CCCC[C@@H](CN[C@H](C)CNC)NCC1CCC(C(C)(C)C)CC1` (some centres not stated) was tested. Which AC50 did it give?
The AC50 was 15 µM.

Which AC50 does the source give for `CN1/C(=C\C(=O)c2ccco2)C(C)(C)c2ccccc21` here?
Its AC50 is 7.58 µM.

How did the AC50 turn out when `OCCNc1nc(Nc2ccc(Cl)c(Cl)c2)nc2ccccc12` was run?
The AC50 was 14.3 µM.

How did the AC50 turn out when `Cc1ccc(NC2=C/C(=N\S(=O)(=O)c3cccs3)c3ccccc3C2=O)c(C)c1` was run?
Its AC50 is 1.88 µM.

Which AC50 does the source give for `COc1cnc(-c2ccccn2)nc1Oc1ccc(Cl)c2ccccc12` here?
The AC50 was 15.3 µM.

Which AC50 does the source give for `COc1ccccc1N1C(C)=CC(=C(C#N)c2nc3ccccc3s2)C=C1C` here?
The AC50 was 8.66 µM.

`O=C(OCCOc1cccc(Cl)c1)c1cc(S(=O)(=O)N2CCCCC2)ccc1N1CCOCC1` was tested. Which AC50 did it give?
Its AC50 is 7.78 µM.

Which AC50 does the source give for `O=C(Nc1nc(-c2ccccn2)cs1)Nc1ccc(F)cc1F` here?
The AC50 was 10.2 µM.

For `Cc1ccc(F)c([C@H]2C3C=CCC(c4ccccc4)C3C(=O)N2Cc2ccccc2)c1` (some centres not stated), which AC50 is on record?
Its AC50 is 14.4 µM.

Which AC50 does the source give for `O=C(NC(Nc1nc2ccc([N+](=O)[O-])cc2s1)(C(F)(F)F)C(F)(F)F)c1cccnc1` here?
The AC50 was 2.58 µM.

How did the AC50 turn out when `COc1cccc(/C=N/NC(=O)c2cc(-c3ccccn3)nc3ccccc23)c1O` was run?
Its AC50 is 7.61 µM.

How did the AC50 turn out when `O=c1nccc(N/N=C/c2ccccc2O)[nH]1` was run?
Its AC50 is 23.3 µM.

For `Cc1[nH]n(C2=NCCS2)c(=O)c1N=Nc1cccc(C(F)(F)F)c1`, which AC50 is on record?
The AC50 was 7.05 µM.

Which AC50 does the source give for `CC(=O)NC(c1ccc(C(C)C)cc1)c1ccc2cccnc2c1O` (configuration not stated) here?
The AC50 was 1.98 µM.

With `CCC(=NNC(=O)c1ccc2c(c1)nc(C)n2CC)c1cc(F)ccc1O` as the compound, how does the AC50 read?
Its AC50 is 9.84 µM.

For `CCN1CCN(Cc2ccc(NC(=O)c3ccc(C)c(NC(=O)C(=O)c4c[nH]c5ccccc45)c3)cc2C(F)(F)F)CC1`, which AC50 is on record?
Its AC50 is 13.8 µM and 7.23 µM.

With `CCN1CCN(c2ccc(S(=O)(=O)N3CCCCC3)cc2NC(=O)c2ccc([N+](=O)[O-])o2)CC1` as the compound, how does the AC50 read?
The AC50 was 8.1 µM.

`Cc1ccc(S(=O)(=O)CC2CSc3nc4ccccc4n32)cc1` (configuration not stated) was tested. Which AC50 did it give?
Its AC50 is 6.51 µM.

With `Cc1ccc(NC2=CC(=O)C(=O)c3ccccc32)cc1` as the compound, how does the AC50 read?
The AC50 was 7.65 µM.

`O=C(Nc1ccc(OCC(F)(F)C(F)F)c(C(F)(F)F)c1)c1ccccc1O` was tested. Which AC50 did it give?
Its AC50 is 6.48 µM.

How did the AC50 turn out when `CCOc1cccc(/C=N/NC(=O)c2ccc3c(c2)OCCO3)c1O` was run?
The AC50 was 8.21 µM.

For `Cc1onc(-c2ccccc2)c1C(=O)NC(=S)NNC(=O)c1ccccc1O`, which AC50 is on record?
Its AC50 is 18.4 µM.

For `O=C(Nc1ccc(Cl)c(Cl)c1)Nc1nnc(CC2=CCCCC2)s1`, which AC50 is on record?
Its AC50 is 5.75 µM.

With `COc1cc(/C=C2\CC(C(C)(C)C)C/C(=C\c3cc(OC)c(OC)c(OC)c3)C2=O)cc(OC)c1OC` (configuration not stated) as the compound, how does the AC50 read?
Its AC50 is 6.04 µM.

How did the AC50 turn out when `CCOc1cc(-c2sc(Nc3cc(C)ccc3OC)n[n+]2-c2ccccc2)ccc1OC` was run?
The AC50 was 15 µM.

Which AC50 does the source give for `CCN1c2ccccc2N(C)C1(C)c1ccccc1` (configuration not stated) here?
Its AC50 is 4.56 µM.

Which AC50 does the source give for `COc1cc2nc(N3CCN(c4cc(C)ccc4C)CC3)nc(N)c2cc1OC` here?
Its AC50 is 6.91 µM.

With `Cn1nc(C(C)(C)C)cc1C(=O)NCc1ccc(N2CCCC2=O)cc1` as the compound, how does the AC50 read?
The AC50 was 5.65 µM.

Which AC50 does the source give for `Clc1ccccc1Nc1nnc(-c2ccncc2)s1` here?
Its AC50 is 4.64 µM.

With `COc1ccc([C@H]2CC(=O)C=C(c3ccnc4ccc(Cl)cc34)C2)cc1` as the compound, how does the AC50 read?
Its AC50 is 6.01 µM.

Which AC50 does the source give for `Cc1cc(C2CCCCC2)n(O)c(=O)c1` here?
The AC50 was 2.69 µM.

Which AC50 does the source give for `Cn1nccc1C(=O)N/N=C/c1c(O)ccc2ccccc12` here?
The AC50 was 3.54 µM.

`COc1cc(/C=N/NC(=O)c2cccnc2)ccc1OC(=O)c1cc(OC)c(OC)c(OC)c1` was tested. Which AC50 did it give?
The AC50 was 2.51 µM.

With `CC(=O)CSc1ccc(-c2nc3ccccc3[nH]2)cn1` as the compound, how does the AC50 read?
Its AC50 is 6.38 µM.

For `COc1ccc(O)c(/C=N/NC(=O)c2cccc(N3CCCC3=O)c2)c1`, which AC50 is on record?
The AC50 was 14.8 µM.
